Results from patent US20210163404A1, “NOVEL UREA COMPOUNDS AND BIOISOSTERES THEREOF AND THEIR USE FOR TREATING INFLAMMATION AND INFLAMMATION-RELATED PATHOLOGIES” (UNIVERSITÉ LAVAL, priority 2017, published 2021).

Key:
[1] = test system: A549 adenocarcinoma alveolar epithelial cancer cells; test: Antiproliferative activity (NCI procedure, sulforhodamine B), A549; format: cell-based, human; settings: Homo sapiens, A549, 48 h; for GI50: Table 2; for IC50: Table 6, unit inferred, tested 781 nM to 100 μM
Procedure, shortened: (§1)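 Cells seeded in DMEM, grown 24 h at 37 °C, then exposed 48 h to serial dilutions from 100 μM to 781 nM (DMSO <0.5%). TCA fixation, sulforhodamine B staining, absorbance at 530-568 nm; growth inhibition relative to plates fixed on treatment day. At least two experiments in triplicate.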

[2] = test system: HaCaT keratinocyte cell line; test: Antiproliferative activity (NCI procedure, sulforhodamine B), HaCaT; format: cell-based, human; settings: Homo sapiens, HaCaT, 48 h; for GI50: Table 2; for IC50: Table 6, unit inferred, tested 781 nM to 100 μM
Procedure, shortened: as §1

[3] = test system: HT-29 colon adenocarcinoma cells; test: Antiproliferative activity (NCI procedure, sulforhodamine B), HT-29; format: cell-based, human; settings: Homo sapiens, HT-29, 48 h; for GI50: Table 2; for IC50: Table 6, unit inferred, tested 781 nM to 100 μM
Procedure, shortened: as §1

[4] = test system: HDFn neonatal dermal fibroblast cell line; test: Antiproliferative activity (NCI procedure, sulforhodamine B), HDFn; format: cell-based, human; settings: Homo sapiens, Fibroblast, 48 h; for GI50: Table 2; for IC50: Table 6, unit inferred, tested 781 nM to 100 μM
Procedure, shortened: as §1

IL-6 = IL-6 expression in HaCaT cells stimulated with IL-17A and TNFα (ELISA); format: cell-based, human; settings: for Expression of IL-6, HaCaT: 10 μM solutions, HaCaT stimulated with IL-17A and TNFα, mean of five experiments in duplicate
Description: The effect of compounds 3a-b, 4a-e, 5a-e and 6a-e on the expression of IL-6 was subsequently assessed using the HaCaT spontaneously transformed aneuploid immortal keratinocyte cell line, stimulated by the addition of IL-17A and TNFα in the culture medium (Table 1). Curcumin and ibuprofen were used as known IL-6 expression inhibitors. DMSO was used for solubilizing the drugs. […] Indeed, the inhibitory effect of these molecules was at least equivalent to that of curcumin [27] and ibuprofen, both recognized as anti-inflammatory drugs. The inhibitory effect of the substituted phenyl cycloalkylureas in accordance with an embodiment of the present disclosure on proinflammatory cytokines was also found at the mRNA level. Indeed, the mRNAs of the cytokines IL-6 and TNF-α as well as the mRNA of the chemokine IL-8 were lowered in TNF-α/IL-17A-stimulated HaCaT cells. Similar results were obtained in THP-1 cells stimulated with LPS where treatments with CHEU and 4e diminished the mRNA levels of the cytokines IL-1B, IL-6 and TNF-α in addition to the mRNA levels of the chemokine IL-8. It is surmised that the anti-inflammatory mechanism of action of the compounds of the present disclosure is likely mediated, at least in part, by modulating the phosphorylation state of the MAP kinase p38. […] Addition of a compound in accordance with an embodiment of the present disclosure, prior to stimulation with the aforementioned cytokines, decreases the level of p-p38 at 30-60 minutes post-stimulation. This diminution in p-p38 levels destabilizes the mRNAs of pro-inflammatory cytokines, non-limiting examples of which include TNF-α and IL-6. Moreover, it is surmised that the effect of the compounds of the present disclosure on p-p38 is potentially mediated by the activation of the phosphatase named DUSP1.
HaCaT cells (1×10^5) were suspended in DMEM culture media (500 μL) and incubated for 24 h in 24-well microtiter plates at 37° C. in a moisture-saturated atmosphere containing 5% CO2. Compounds were solubilized in DMSO and diluted in fresh DMEM. The compound (500 μL) was then added to the cell medium to obtain a final concentration of […] and the cells incubated over a period of 1 hour. In the meantime, IL-17α (200 ng/mL) and TNFα (20 ng/mL) (PeproTech, Rocky Hill, N.J.) were added to the drug solution in DMEM. Following the initial incubation of the cells, the culture medium was aspirated from each well and the IL-17α+ TNFα+ compound solution was added to each well for incubation (6 hours). The culture media was then removed and transferred to a clean tube (1.5 mL) at −80° C. until the ELISA test was performed. The presence of IL-6 in the cell media was determined using an IL-6 human Duoset ELISA kit (Fisher Scientific, Ottawa, On.) according to the manufacturer's instructions. Standards and samples were prepared and assessed in duplicate. Two separate replicates were performed for each sample. The absorbance was measured at 450 nm and 540 nm using a TECAN infinite M1000 plate reader.

For O=C(Nc1ccc(I)cc1)NC1CCCC1 [Compound 24, 1-Cyclopentyl-3-(4-iodophenyl)urea], the GI50 [1] was 62 µM, the IC50 [1] was 62 µM and the GI50 [2] was > 100 µM. For the same compound, the IC50 [2] was ≥ 100 µM, the GI50 [3] was 9.7 µM and the IC50 [3] was 9.7 µM. For the same compound, the GI50 [4] was > 100 µM, the IC50 [4] was ≥ 100 µM and the melting point was 188 to 191 °C. For the same compound, the “Expression of IL-6, HaCaT” value (IL-6) was 65.1 ± 7.6 pg/mL.

In the case of CC(C)(C)c1ccc(NC(=O)NC2CC2)cc1 [Compound 27, 1-(4-(t-Butyl)phenyl)-3-cyclopropylurea], the GI50 [1] is reported as > 100 µM, the IC50 [1] is reported as ≥ 100 µM and the GI50 [2] is reported as > 100 µM. For the same compound, the IC50 [2] was ≥ 100 µM, the GI50 [3] was 85 µM and the IC50 [3] was 85 µM. For the same compound, the GI50 [4] was 55 µM, the IC50 [4] was 55 µM and the melting point was 138 to 139 °C. The “Expression of IL-6, HaCaT” value (IL-6) was 91.9 ± 7.6 pg/mL.

With CC(C)(C)c1ccc(NC(=O)NCC2CCC2)cc1 [Compound 30, 1-(4-(t-Butyl)phenyl)-3-(cyclobutylmethyl)urea] the GI50 [1] was > 100 µM, the IC50 [1] was ≥ 100 µM and the GI50 [2] was 35 µM. It also gave an IC50 [2] of 35 µM, a GI50 [3] of 21 µM and an IC50 [3] of 21 µM. It also gave a GI50 [4] of 8.2 µM, an IC50 [4] of 8.2 µM and a melting point of 179 to 184 °C. For the same compound, the “Expression of IL-6, HaCaT” value (IL-6) was 70.6 ± 7.6 pg/mL.

In the case of O=C(Nc1cccc(I)c1)NC1CC1 [Compound 36, 1-Cyclopropyl-3-(3-iodophenyl)urea], the GI50 [1] is reported as 84 µM, the IC50 [1] is reported as 84 µM and the GI50 [2] is reported as > 100 µM. The IC50 [2] was ≥ 100 µM, the GI50 [3] was > 100 µM and the IC50 [3] was ≥ 100 µM. It also gave a GI50 [4] of 79 µM, an IC50 [4] of 79 µM and a melting point of 153 to 154 °C. The “Expression of IL-6, HaCaT” value (IL-6) was 57.3 ± 4.4 pg/mL.

For O=C(NCC1CCC1)Nc1cccc(I)c1 [Compound 39, 1-(Cyclobutylmethyl)-3-(3-iodophenyl)urea], the GI50 [1] was 25 µM, the IC50 [1] was 25 µM and the GI50 [2] was 31 µM. It also gave an IC50 [2] of 31 µM, a GI50 [3] of 25 µM and an IC50 [3] of 25 µM. For the same compound, the GI50 [4] was 15 µM, the IC50 [4] was 15 µM and the melting point was 138 to 140 °C. For the same compound, the “Expression of IL-6, HaCaT” value (IL-6) was 90.2 ± 11.1 pg/mL.

For O=C(Nc1cccc(I)c1)NC1CCCC1 [Compound 40, 1-Cyclopentyl-3-(3-iodophenyl)urea], the GI50 [1] was 30 µM, the IC50 [1] was 30 µM and the GI50 [2] was 49 µM. The IC50 [2] was 49 µM, the GI50 [3] was 30 µM and the IC50 [3] was 30 µM. The GI50 [4] was 23 µM, the IC50 [4] was 23 µM and the melting point was 142 to 143 °C. For the same compound, the “Expression of IL-6, HaCaT” value (IL-6) was 89.8 ± 9.0 pg/mL.

With CC(C)(C)c1cccc(NC(=O)NC2CC2)c1 [Compound 44] the GI50 [1] was > 100 µM, the IC50 [1] was ≥ 100 µM and the GI50 [2] was > 100 µM. For the same compound, the IC50 [2] was ≥ 100 µM, the GI50 [3] was > 100 µM and the IC50 [3] was ≥ 100 µM. For the same compound, the GI50 [4] was > 100 µM, the IC50 [4] was ≥ 100 µM and the melting point was 169 to 171 °C. The “Expression of IL-6, HaCaT” value (IL-6) was 50.4 ± 2.6 pg/mL.

With CC(C)(C)c1cccc(NC(=O)NC2CCCC2)c1 [Compound 48, 1-(3-(t-Butyl)phenyl)-3-cyclopentylurea] the GI50 [1] was 34 µM, the IC50 [1] was 34 µM and the GI50 [2] was > 100 µM. For the same compound, the IC50 [2] was ≥ 100 µM, the GI50 [3] was 27 µM and the IC50 [3] was 27 µM. For the same compound, the GI50 [4] was 84 µM, the IC50 [4] was 84 µM and the melting point was 152 to 154 °C. For the same compound, the “Expression of IL-6, HaCaT” value (IL-6) was 74.6 ± 6.7 pg/mL.

In the case of O=C(NCC1CCC1)Nc1ccc(C2CCCCC2)cc1 [Compound 57, 1-(Cyclobutylmethyl)-3-(4-cyclohexylphenyl)urea], the GI50 [1] is reported as > 100 µM, the IC50 [1] is reported as ≥ 100 µM and the GI50 [2] is reported as > 100 µM. For the same compound, the IC50 [2] was ≥ 100 µM, the GI50 [3] was > 100 µM and the IC50 [3] was ≥ 100 µM. The GI50 [4] was > 100 µM, the IC50 [4] was ≥ 100 µM and the melting point was 172 to 173 °C. The “Expression of IL-6, HaCaT” value (IL-6) was 64.1 ± 5.4 pg/mL and the “inhibitory effect on IL-6 expression in HaCaT cells” value (IL-6; 10 μM, stimulated with IL-17A and TNFα, in words) was “significant inhibitory effect”.
